The source of these data is PMC10200060, “Inhibition of DAMP actions in the tumoral microenvironment using lactoferrin-glycyrrhizin conjugate for glioblastoma therapy” (Biomaterials Research, 2023).

For data set [1], the target named is T1, human recombinant HMGB1 protein (Homo sapiens, UniProt P09429).
T1 construct: purchased Abcam
T1 sequence (P09429 1-215): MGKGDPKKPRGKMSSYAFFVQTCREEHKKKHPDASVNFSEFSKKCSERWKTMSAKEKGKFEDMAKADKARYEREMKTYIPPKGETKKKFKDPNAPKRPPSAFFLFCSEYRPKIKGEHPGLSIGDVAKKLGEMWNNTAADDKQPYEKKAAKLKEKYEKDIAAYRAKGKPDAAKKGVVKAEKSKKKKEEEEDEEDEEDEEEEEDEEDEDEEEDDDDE
The data set can be described thus: SPR binding affinity against HMGB1. Particulars: SPR, HMGB1 immobilized. As to the method: To confirm the binding affinity of Lf-GL to HMGB1, Surface Plasmon Resonance (SPR) was conducted at WoojungBSC (Korea). The Reichert SR7500DC system (Reichert technologies, NA, USA) and Scrubber2 software (Biologic software, FRA) were used, and a CMDH chip (Cat #: 13,206,066, Reichert technologies) was used for immobilization of the human recombinant HMGB1 protein (Abcam). HMGB1 protein was used as a ligand, and the analytes were HMGB1 antibody (Abcam), GL, Lf and Lf-GL conjugate. The immobilization buffer was S.A. (10 × 10^–3 M, pH 4.5), and the running buffer was PBS (pH 7.4). The flow rate of the analyte was 30 μL min^−1. The association and dissociation time were 3 min each, and measurements were conducted at room temperature. Results are expressed in response units (RU) over time.
Fig. S5. Binding affinity against HMGB1. Surface Plasmon Resonance (SPR) was conducted at WoojungBSC (Korea). The Reichert SR7500DC system (Reichert technologies, NA, USA) and Scrubber2 software(Biologic software, FRA) were used and the CMDH chip (Cat #: 13206066, Reichert technologies) was used for immobilization of the human recombinant HMGB1 protein (Abcam). HMGB1 protein was used as ligand and analytes were HMGB1 antibody (Abcam), GL, Lf and Lf-GL conjugate. Immobilization buffer was 10 mM S.A. (pH 4.5) and running buffer was 1× PBS. The flow rate of the analyte was 30 μL min^-1. The association and dissociation time were 3 min each and conducted at room temperature. Results are expressed in response units (RU) over time.

Data set [2] relates to HMGB1. Description: HUVEC co-cultured with U87MG: HMGB1 ELISA. Format: cell-based, human. Conditions: HUVEC/U87MG co-culture, 100 μM GL equivalent, 24 h (control 217.8 ± 5.9). As to the method:
(§1) To evaluate the inhibitory effect of Lf-GL on neovascularization in the tumor microenvironment in vitro, U87MG cells were seeded in the Transwell® insert chambers that were 6.5 mm in diameter and had 0.4 μm pore sizes (seeding density: 2.5 × 10^4 cells per well, Corning). HUVECs were seeded in the Transwell basal chamber (seeding density: 5.0 × 10^4 cells per well). GL, Lf, or Lf-GL (100 × 10^–6 M of GL equivalent concentration) were added to the insert chamber, and cells were incubated for 24 h. CCK-8 assay and HMGB1 ELISA were conducted at the basal chamber.
(ELISA stands for enzyme-linked immunosorbent assay.)

The next data set has as its system HUVEC. The data set can be described thus: HUVEC co-cultured with U87MG: CCK-8 at basal chamber. Format: cell-based, human. Particulars: HUVEC/U87MG Transwell co-culture, 100 μM GL equivalent, 24 h. As to the method: as §1
Data set [3] is described as follows: In vivo fluorescence tracer image (brain). Set-up: species or system Balb/c mice. Particulars: FITC-tagged. As to the method: For the fluorescence tracer images, Balb/c mice were administered either FITC-tagged GL or FITC-tagged Lf-GL at a GL equivalent concentration of 50 mg kg^−1 body weight via tail vein injection. After 1, 10, 30, and 60 min, the experimental mice were sacrificed, and the organs were extracted. The fluorescence signals of FITC-tagged GL or FITC-tagged Lf-GL in organs were imaged using an in vivo imaging system (FOBI, CELLGENTEK, South Korea). The exposure time was fixed to 200 s for analyzing fluorescent signals from tissues. The quantified fluorescence signal of the brain at each time point was measured in terms of intensity units (IU, Intensity Min^−1 Gain^−1).
Fig. S15. Fluorescence tracer images of intravenously injected GL and Lf-GL. Balb/c mice were administered either FITC-tagged GL or FITC-tagged Lf-GL at a GL equivalent concentration of 50 mg kg^-1 body weight via tail vein injection. The fluorescence signals of FITC-tagged GL or FITC-tagged Lf-GL in organs were imaged using an in vivo imaging system (FOBI, CELLGENTEK, South Korea). The exposure time was fixed to 200 sec for analyzing fluorescent signals from tissues. The quantified fluorescence signal of brain at each time point was measured with Intensity Unit (IU, Intensity Min^-1 Gain^-1).

The test system of another data set is CD31. The data set can be described thus: Immunofluorescence staining of CD31 in GBM tissue. The class given is in vivo, Balb/c nude mice. Conditions: GBM mice, daily i.v., 14 days (control MFI 14.7 ± 1.4). An excerpt: (§2) After two weeks, mice were sacrificed, and the brains were harvested and fixed with paraformaldehyde (4%). Then, tissue processing was automatically conducted using a Leica TP1020 semi-enclosed Benchtop Tissue Processor (Leica Biosystems, Wetzlar, Hesse, Germany), followed by embedding in paraffin blocks. Paraffin blocks were sliced into 5 μm thick slices using a Leica RM2145 Microtome (Leica Biosystems). Nissl staining was used to stain brain tissue slides with pre-warmed 0.1% Cresyl Violet Stain Solution (Abcam). TUNEL assays were conducted following the manufacturer’s instructions. For immunofluorescence staining; anti-HMGB1 antibody (Abcam), anti-Ki67 antibody (Abcam), anti-CD31 antibody (Abcam), and anti-VEGF antibody (Abcam) were used as primary antibodies, and goat anti-rabbit IgG-H&L Alexa Fluor 488 and goat anti-rabbit IgG H&L Alexa Fluor 647 were used as secondary antibodies, followed by DAPI mounting.

Data set [4] deals with HMGB1. The data set can be described thus: Immunofluorescence staining of HMGB1 in GBM tissue. Format: in vivo, Balb/c nude mice. Particulars: GBM mice, daily i.v. GL equivalent 50 mg kg^−1, 14 days (control 15.3 ± 1.7).
Text: as §2

For the next data set, the target named is HMGB1 box A. Set-up: method as in PMID 17462578. Particulars: previously reported; cited from earlier work.
For data set [5], the system named is orthotopic GBM (U87MG) mice model. The data set can be described thus: Survival in orthotopic GBM mouse model. Format: in vivo, Balb/c nude mice. Conditions: i.v. GL equivalent 50 mg kg^−1 (Lf 5 mg kg^−1), 28 days. As to the method:
To establish the orthotopic GBM mice model, GBM cells (U87MG, inoculation density: 1.0 × 10^6 cells per 10 μL) were stereotactically injected into the right striatum of Balb/c nude mice. Then, mice were randomly divided into four groups (n = 5): control, GL, Lf, and Lf-GL treated group. […] After four weeks, mice were sacrificed, and organs were harvested and fixed with 4% paraformaldehyde for further analysis.

For data set [6] the test system is unchanged. The data set can be described thus: TUNEL assay of GBM tissue. The class given is in vivo, Balb/c nude mice. Particulars: daily i.v., 14 days (control 28.5 ± 4.8).
Text: as §2

Structures are written as SMILES.

In the case of `CC1(C)[C@@H](O[C@H]2O[C@H](C(=O)O)[C@@H](O)[C@H](O)[C@H]2O[C@@H]2O[C@H](C(=O)O)[C@@H](O)[C@H](O)[C@H]2O)CC[C@]2(C)[C@H]3C(=O)C=C4[C@@H]5C[C@@](C)(C(=O)O)CC[C@]5(C)CC[C@@]4(C)[C@]3(C)CC[C@@H]12` [GL, Glycyrrhizin], in [1] (PBS pH 7.4, room temperature), the Kd, dissociation rate constant amounted to 0.00283 ± 3e-05 s⁻¹. Further, the kon in data set [1] (PBS pH 7.4, room temperature, read-out: Ka, association rate constant) turned out to be 5.3 ± 0.1 M⁻¹ s⁻¹. Further, the Kd – broadly, the free concentration of one partner at which half of the binding sites on the other are occupied at equilibrium, for simple one-to-one binding – was 540 ± 20 µM in data set [1] (read-out: KD, equilibrium dissociation constant (KD = Kd Ka^−1)) and 170 ± 3 µM on HMGB1 box A. Moreover, the “HMGB1 level in medium” value in the data set on HMGB1 [2] came to 190.7 ± 19.0 ng/mL. For the same compound, the “Reduction of endothelial cell proliferation” value in the data set with HUVEC was 10.7 ± 2.9%. The “Time up to which fluorescence signal was detected in the brain” value in [3] (i.v. GL equivalent 50 mg kg^−1) is recorded as ≤ 10 min. Besides, in data set [3] (i.v. GL equivalent 50 mg kg^−1, 10 min after injection), the “Fluorescence intensity in the brain” value was 7,914 I.U. For the same compound, in the data set on CD31, the “Decrease of MFI of CD31” value is listed as “approximately 4 fold”. Also, the “Mean fluorescence intensity (MFI) of HMGB1” value in the data set on HMGB1 [4] was determined as 6.2 ± 0.8. Also, the “Additional days of survival versus PBS control” value in data set [5] turned out to be 4 days. In data set [6], the “TUNEL MFI” value was 16.3 ± 2.8.
